Assay results taken from US11718596B2, “Amyloid targeting agents and methods of using the same” (The Regents of the University of California, priority 2014, dated 2023).
In brackets after ≈: the same amount, converted by molar mass.

What was measured:
[1] = Hydrolytic decomposition in PBS by HPLC; assay type: physicochemical; conditions: PBS with 5% DMSO, 25° C., read-out: t1/2 for hydrolysis (converted)
Source text: In certain in vivo environments (especially at high or low pH or in the presence of esterases), ANCA-11 is expected to decompose very rapidly due to the poor stability of its ester functionality. The amide functionality in Compound 1 alleviates the problem of hydrolytic instability inherent to ANCA-11.

[2] = system: amyloid deposits in murine AD neuronal tissue; assay: Tissue staining of amyloid deposits in AD mouse brain sections; conditions: for fluorescence labeling of amyloid deposits in hippocampal brain sections: mouse model for Alzheimer's disease, FIG. 13; for staining of amyloid deposits in murine AD neuronal tissue: figure legends
[3] = biological target: aggregated Aβ(1-42) peptide (Homo sapiens, UniProt P05067); conditions: in vitro; characteristic fluorescence upon binding to Alzheimer's related amyloids
[4] = system: amyloids derived from amyloid-β, PrP, and α-synuclein; assay type: binding
[5] = biological target: amyloid deposits in the retina (Homo sapiens, UniProt P05067); assay: Ex vivo retina analysis of J20 mice after systemic (tail vein) dosing; conditions: J20 mouse, 30 minutes prior to sacrifice, co-localizes with anti-Aβ antibody
Solubility studies = conditions: lower pH and higher buffer concentration
[6] = system: prion amyloid deposits in the retina

Chain of amyloid deposits in the retina (P05067 672-713 limits assumed): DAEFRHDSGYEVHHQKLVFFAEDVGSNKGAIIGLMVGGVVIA
Chain of aggregated Aβ(1-42) peptide (P05067 672-713): as the sequence (P05067 672-713 limits assumed) above

## COCCOCCOCCOC(=O)/C(C#N)=C/c1ccc2cc(N3CCCCC3)ccc2c1 [ANCA-11, (E)-2-(2-(2-methoxyethoxy)ethoxy)ethyl 2-cyano-3-(6-(piperidin-1-yl)naphthalen-2-yl)acrylate, reference compound]
[1]
  half-life: ~0.458 days

## COCCOCCOCCNC(=O)/C(C#N)=C/c1ccc2cc(N3CCCCC3)ccc2c1 [Compound 1, (E)-2-Cyano-N-(2-(2-(2-methoxyethoxy)ethoxy)ethyl)-3-(6-(piperidin-1-yl)naphthalen-2-yl)acrylamide]
[2]
  fluorescence labeling of amyloid deposits in hippocampal brain sections: fluorescence labeling of amyloid deposits
[3]
  ability to bind selectively to amyloids: bind selectively to amyloids
physchem; aqueous buffer, solubility at lower pH and higher acidic buffer strength
  solubility: > 6000 µg/mL
physchem; aqueous with cosolvent or surfactant or cyclodextrin, solubility in surfactants
  solubility: > 5000 µg/mL
physchem; aqueous with cosolvent or surfactant or cyclodextrin, solubility in the other water miscible solvents listed
  solubility: 2000 to 3000 µg/mL (≈ 4.43 to 6.64 mM)
physchem; oil or lipid, solubility in all oils tested
  solubility: > 5000 µg/mL
physchem; organic solvent or mixture, Solubility (mg/mL)
  solubility: 20000 µg/mL (≈ 44.3 mM)
physchem; organic solvent or mixture, solubility in water miscible solvents: alcohols
  solubility: > 5000 µg/mL
physchem; pH 2, aqueous buffer, solubility in acid buffers
  solubility: ≤ 350 µg/mL
physchem; pH 2.5, aqueous buffer, Conc (mg/mL)
  solubility: 1630 µg/mL (≈ 3.61 mM)
physchem; pH 7.4, aqueous buffer, Conc (mg/mL)
  solubility: 7.4 µg/mL (≈ 0.0164 mM)
physchem; water, Conc (mg/mL)
  solubility: 3.1 µg/mL (≈ 0.00686 mM)
physchem; water, solubility in water
  solubility: 3 µg/mL (≈ 0.00664 mM)
[4]
  discrimination of amyloids of different disease origin based on color of emission: can distinguish between amyloids of different disease origin based on color of emission
[5]
  crossing of the blood-retina barrier: can cross the blood-retina barrier
Solubility studies
  fold increase of solubility in acid buffer vs water: 100 fold
[6]; mice inoculated with GPI-anchorless PrP, intraperitoneal injection
  visualization of amyloid deposits in the retina of live mice: allowed for the visualization of amyloid deposits in the retina
[6]; wt mouse, fluorescence image immediately after IP injection
  accumulation in blood and retinal tissue after IP injection: immediately accumulates in the blood and in the retinal tissue
[1]
  half-life: ~6.25 days

## COCCOCCOCCNS(=O)(=O)/C(C#N)=C/c1ccc2cc(N3CCCCC3)ccc2c1 [Compound 2, (E)-1-cyano-N-(2-(2-(2-methoxyethoxy)ethoxy)ethyl)-2-(6-(piperidin-1-yl)naphthalen-2-yl)ethenesulfonamide]
[2]
  fluorescence labeling of amyloid deposits in hippocampal brain sections: fluorescence labeling of amyloid deposits

## COCCOCCOCCOCCOCCOCCNC(=O)/C(C#N)=C/c1ccc2cc(N3CCCCC3)ccc2c1 [Compound 3, (E)-2-cyano-N-(2,5,8,11,14,17-hexaoxanonadecan-19-yl)-3-(6-(piperidin-1-yl)naphthalen-2-yl)acrylamide]
[2]
  staining of amyloid deposits in murine AD neuronal tissue: staining of amyloid deposits

## N#C/C(=C\c1ccc2cc(N3CCCCC3)ccc2c1)C(=O)NCC(O)CO (stereo not shown) [Compound 5, (E)-2-cyano-N-(2,3-dihydroxypropyl)-3-(6-(piperidin-1-yl)naphthalen-2-yl)acrylamide]
[2]
  staining of amyloid deposits in murine AD neuronal tissue: staining of amyloid deposits

## COC1OC(Cn2cc(COCCOCCOCCNC(=O)/C(C#N)=C/c3ccc4cc(N5CCCCC5)ccc4c3)nn2)C(O)C(O)C1O (stereo not shown) [Compound 19, (E)-2-cyano-3-(6-(piperidin-1-yl)naphthalen-2-yl)-N-(2-(2-(2-((1-((3,4,5-trihydroxy-6-methoxytetrahydro-2H-pyran-2-yl)methyl)-1H-1,2,3-triazol-4-yl)methoxy)ethoxy)ethoxy)ethyl)acrylamide]
[2]
  staining of amyloid deposits in murine AD neuronal tissue: staining of amyloid deposits

## COC1OC(Cn2cc(CNC(=O)/C(C#N)=C/c3ccc4cc(N5CCCCC5)ccc4c3)nn2)C(O)C(O)C1O (stereo not shown) [Compound 20, (E)-2-cyano-3-(6-(piperidin-1-yl)naphthalen-2-yl)-N-((1-((3,4,5-trihydroxy-6-methoxytetrahydro-2H-pyran-2-yl)methyl)-1H-1,2,3-triazol-4-yl)methyl)acrylamide]
[2]
  staining of amyloid deposits in murine AD neuronal tissue: staining of amyloid deposits
